In ChEMBL document CHEMBL2057064, “Activation of human RNase L by 2'- and 5'-O-methylphosphonate-modified oligoadenylates” (Bioorg Med Chem Lett, 2012):
Activity calls are given as the source filed them. No cut-off for these calls is given here.

The compounds below were run against T1, 2-5A-dependent ribonuclease (Homo sapiens) (UniProt Q05823) (assay: Antagonist activity at human RNase L expressed in Escherichia coli BL21 (DE3) cells assessed as RNA cleavage using Cy5-C11-rUU-C7-BHQ2 as substrate by FRET assay in presence of natural activator pAAAA).
T1 sequence (whole entry): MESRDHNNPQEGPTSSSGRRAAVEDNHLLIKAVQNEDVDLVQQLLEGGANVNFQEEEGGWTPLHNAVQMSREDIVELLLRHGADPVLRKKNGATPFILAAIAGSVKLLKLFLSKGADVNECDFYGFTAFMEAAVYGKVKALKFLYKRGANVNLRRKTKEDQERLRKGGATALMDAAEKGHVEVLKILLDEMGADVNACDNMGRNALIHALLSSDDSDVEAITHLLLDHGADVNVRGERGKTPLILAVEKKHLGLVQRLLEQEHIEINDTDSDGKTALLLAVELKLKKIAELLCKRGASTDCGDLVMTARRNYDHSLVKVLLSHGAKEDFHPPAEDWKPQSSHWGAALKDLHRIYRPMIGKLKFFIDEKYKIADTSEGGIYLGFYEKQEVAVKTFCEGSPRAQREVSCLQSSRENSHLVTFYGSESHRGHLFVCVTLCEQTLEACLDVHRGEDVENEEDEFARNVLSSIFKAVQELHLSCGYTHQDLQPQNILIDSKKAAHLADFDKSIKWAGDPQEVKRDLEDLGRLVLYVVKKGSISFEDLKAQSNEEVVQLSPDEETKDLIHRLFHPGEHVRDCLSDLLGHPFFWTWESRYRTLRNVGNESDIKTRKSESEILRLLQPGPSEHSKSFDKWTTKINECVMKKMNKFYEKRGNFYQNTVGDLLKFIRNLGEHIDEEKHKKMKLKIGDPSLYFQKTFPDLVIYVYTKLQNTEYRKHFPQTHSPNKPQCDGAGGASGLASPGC
Format: functional

SMILES | inhibition
Nc1ncnc2c1ncn2[C@@H]1O[C@H](COCP(=O)(O)O[C@@H]2[C@H](O)[C@@H](COP(=O)(O)O[C@@H]3[C@H](O)[C@@H](COP(=O)(O)O[C@@H]4[C@H](O)[C@@H](COCP(=O)(O)O)O[C@H]4n4cnc5c(N)ncnc54)O[C@H]3n3cnc4c(N)ncnc43)O[C@H]2n2cnc3c(N)ncnc32)[C@@H](O)[C@H]1O | inactive
Nc1ncnc2c1ncn2[C@@H]1O[C@H](COCP(=O)(O)O[C@@H]2[C@H](O)[C@@H](COP(=O)(O)O[C@@H]3[C@@H](O)[C@@H](COCP(=O)(O)O[C@@H]4[C@@H](O)[C@@H](COCP(=O)(O)O)O[C@H]4n4cnc5c(N)ncnc54)O[C@H]3n3cnc4c(N)ncnc43)O[C@H]2n2cnc3c(N)ncnc32)[C@H](O)[C@H]1O | inactive
Nc1ncnc2c1ncn2[C@@H]1O[C@H](COCP(=O)(O)O[C@H]2[C@H](O)[C@@H](COCP(=O)(O)O[C@@H]3[C@H](O)[C@@H](COP(=O)(O)O[C@H]4[C@H](O)[C@@H](COCP(=O)(O)O)O[C@H]4n4cnc5c(N)ncnc54)O[C@H]3n3cnc4c(N)ncnc43)O[C@H]2n2cnc3c(N)ncnc32)[C@@H](O)[C@@H]1O | inactive
Nc1ncnc2c1ncn2[C@@H]1O[C@H](COP(=O)(O)CO[C@@H]2[C@H](O)[C@@H](COP(=O)(O)O[C@@H]3[C@H](O)[C@@H](COP(=O)(O)CO[C@@H]4[C@H](O)[C@@H](COP(=O)(O)O)O[C@H]4n4cnc5c(N)ncnc54)O[C@H]3n3cnc4c(N)ncnc43)O[C@H]2n2cnc3c(N)ncnc32)[C@@H](O)[C@H]1O | inactive
Nc1ncnc2c1ncn2[C@@H]1O[C@H](COP(=O)(O)O[C@@H]2[C@H](O)[C@@H](COCP(=O)(O)O[C@@H]3[C@H](O)[C@@H](COP(=O)(O)O[C@@H]4[C@H](O)[C@@H](COCP(=O)(O)O)O[C@H]4n4cnc5c(N)ncnc54)O[C@H]3n3cnc4c(N)ncnc43)O[C@H]2n2cnc3c(N)ncnc32)[C@@H](O)[C@H]1O | inactive
Nc1ncnc2c1ncn2[C@@H]1O[C@H](COCP(=O)(O)O[C@@H]2[C@@H](O)[C@@H](COCP(=O)(O)O[C@@H]3[C@H](O)[C@@H](COP(=O)(O)O[C@@H]4[C@@H](O)[C@@H](COCP(=O)(O)O)O[C@H]4n4cnc5c(N)ncnc54)O[C@H]3n3cnc4c(N)ncnc43)O[C@H]2n2cnc3c(N)ncnc32)[C@H](O)[C@H]1O | inactive
Nc1ncnc2c1ncn2[C@@H]1O[C@H](COP(=O)(O)O[C@@H]2[C@H](O)[C@@H](COP(=O)(O)CO[C@@H]3[C@H](O)[C@@H](COP(=O)(O)CO[C@@H]4[C@H](O)[C@@H](COP(=O)(O)O)O[C@H]4n4cnc5c(N)ncnc54)O[C@H]3n3cnc4c(N)ncnc43)O[C@H]2n2cnc3c(N)ncnc32)[C@@H](O)[C@H]1O | inactive
Nc1ncnc2c1ncn2[C@@H]1O[C@H](COCP(=O)(O)O[C@@H]2[C@H](O)[C@@H](COP(=O)(O)O[C@@H]3[C@H](O)[C@@H](COCP(=O)(O)O[C@@H]4[C@H](O)[C@@H](COP(=O)(O)O)O[C@H]4n4cnc5c(N)ncnc54)O[C@H]3n3cnc4c(N)ncnc43)O[C@H]2n2cnc3c(N)ncnc32)[C@@H](O)[C@H]1O | inactive
Nc1ncnc2c1ncn2[C@@H]1O[C@H](COP(=O)(O)O[C@@H]2[C@H](O)[C@@H](COP(=O)(O)O[C@@H]3[C@H](O)[C@@H](COCP(=O)(O)O[C@@H]4[C@H](O)[C@@H](COCP(=O)(O)O)O[C@H]4n4cnc5c(N)ncnc54)O[C@H]3n3cnc4c(N)ncnc43)O[C@H]2n2cnc3c(N)ncnc32)[C@@H](O)[C@H]1O | inactive
Nc1ncnc2c1ncn2[C@@H]1O[C@H](COCP(=O)(O)O[C@@H]2[C@H](O)[C@@H](COP(=O)(O)O[C@H]3[C@H](O)[C@@H](COCP(=O)(O)O[C@H]4[C@H](O)[C@@H](COCP(=O)(O)O)O[C@H]4n4cnc5c(N)ncnc54)O[C@H]3n3cnc4c(N)ncnc43)O[C@H]2n2cnc3c(N)ncnc32)[C@@H](O)[C@@H]1O | inactive
Nc1ncnc2c1ncn2[C@@H]1O[C@H](COP(=O)(O)CO[C@@H]2[C@H](O)[C@@H](COP(=O)(O)CO[C@@H]3[C@H](O)[C@@H](COP(=O)(O)O[C@@H]4[C@H](O)[C@@H](COP(=O)(O)O)O[C@H]4n4cnc5c(N)ncnc54)O[C@H]3n3cnc4c(N)ncnc43)O[C@H]2n2cnc3c(N)ncnc32)[C@@H](O)[C@H]1O | inactive
Nc1ncnc2c1ncn2[C@@H]1O[C@H](COCP(=O)(O)O[C@@H]2[C@H](O)[C@@H](COP(=O)(O)O[C@@H]3[C@H](O)[C@@H](COCP(=O)(O)O[C@@H]4[C@H](O)[C@@H](COCP(=O)(O)O)O[C@H]4n4cnc5c(N)ncnc54)O[C@H]3n3cnc4c(N)ncnc43)O[C@H]2n2cnc3c(N)ncnc32)[C@@H](O)[C@H]1O | inactive
Nc1ncnc2c1ncn2[C@@H]1O[C@H](COP(=O)(O)O[C@@H]2[C@@H](O)[C@@H](COCP(=O)(O)O[C@@H]3[C@@H](O)[C@@H](COCP(=O)(O)O[C@@H]4[C@H](O)[C@@H](COP(=O)(O)O)O[C@H]4n4cnc5c(N)ncnc54)O[C@H]3n3cnc4c(N)ncnc43)O[C@H]2n2cnc3c(N)ncnc32)[C@@H](O)[C@H]1O | inactive
Nc1ncnc2c1ncn2[C@@H]1O[C@H](COCP(=O)(O)O[C@@H]2[C@H](O)[C@@H](COP(=O)(O)O[C@H]3[C@H](O)[C@@H](COCP(=O)(O)O[C@@H]4[C@H](O)[C@@H](COP(=O)(O)O)O[C@H]4n4cnc5c(N)ncnc54)O[C@H]3n3cnc4c(N)ncnc43)O[C@H]2n2cnc3c(N)ncnc32)[C@@H](O)[C@@H]1O | inactive
Nc1ncnc2c1ncn2[C@@H]1O[C@H](COP(=O)(O)CO[C@@H]2[C@H](O)[C@@H](COP(=O)(O)CO[C@@H]3[C@H](O)[C@@H](COP(=O)(O)CO[C@@H]4[C@H](O)[C@@H](COP(=O)(O)O)O[C@H]4n4cnc5c(N)ncnc54)O[C@H]3n3cnc4c(N)ncnc43)O[C@H]2n2cnc3c(N)ncnc32)[C@@H](O)[C@H]1O | inactive
Nc1ncnc2c1ncn2[C@@H]1O[C@H](COP(=O)(O)O[C@@H]2[C@H](O)[C@@H](COP(=O)(O)CO[C@H]3[C@H](O)[C@@H](COP(=O)(O)CO[C@H]4[C@H](O)[C@@H](COP(=O)(O)O)O[C@H]4n4cnc5c(N)ncnc54)O[C@H]3n3cnc4c(N)ncnc43)O[C@H]2n2cnc3c(N)ncnc32)[C@@H](O)[C@H]1O | inactive
Nc1ncnc2c1ncn2[C@@H]1O[C@H](COCP(=O)(O)O[C@@H]2[C@@H](O)[C@@H](COCP(=O)(O)O[C@@H]3[C@H](O)[C@@H](COP(=O)(O)O[C@@H]4[C@H](O)[C@@H](COP(=O)(O)O)O[C@H]4n4cnc5c(N)ncnc54)O[C@H]3n3cnc4c(N)ncnc43)O[C@H]2n2cnc3c(N)ncnc32)[C@H](O)[C@H]1O | inactive
Nc1ncnc2c1ncn2[C@@H]1O[C@H](COCP(=O)(O)O[C@H]2[C@H](O)[C@@H](COCP(=O)(O)O[C@H]3[C@H](O)[C@@H](COCP(=O)(O)O[C@@H]4[C@H](O)[C@@H](COP(=O)(O)O)O[C@H]4n4cnc5c(N)ncnc54)O[C@H]3n3cnc4c(N)ncnc43)O[C@H]2n2cnc3c(N)ncnc32)[C@@H](O)[C@@H]1O | inactive
Nc1ncnc2c1ncn2[C@@H]1O[C@H](COCP(=O)(O)O[C@@H]2[C@H](O)[C@@H](COCP(=O)(O)O[C@@H]3[C@H](O)[C@@H](COP(=O)(O)O[C@@H]4[C@H](O)[C@@H](COCP(=O)(O)O)O[C@H]4n4cnc5c(N)ncnc54)O[C@H]3n3cnc4c(N)ncnc43)O[C@H]2n2cnc3c(N)ncnc32)[C@@H](O)[C@H]1O | inactive
